For 19 compounds, IC50 results are on record in US20190177279A1, “CARBOXYLIC ACID AROMATIC 1,2-CYCLOPROPYLAMIDES” (Bayer Pharma Aktiengesellschaft, priority 2017, published 2019).

What is called IC50 is the concentration needed to halve the response being measured.

For one experiment, the target named is T1, human B1 receptor (Homo sapiens, UniProt P46663).
T1 construct: host or cells: CHO-K1
T1 sequence (P46663 1-353): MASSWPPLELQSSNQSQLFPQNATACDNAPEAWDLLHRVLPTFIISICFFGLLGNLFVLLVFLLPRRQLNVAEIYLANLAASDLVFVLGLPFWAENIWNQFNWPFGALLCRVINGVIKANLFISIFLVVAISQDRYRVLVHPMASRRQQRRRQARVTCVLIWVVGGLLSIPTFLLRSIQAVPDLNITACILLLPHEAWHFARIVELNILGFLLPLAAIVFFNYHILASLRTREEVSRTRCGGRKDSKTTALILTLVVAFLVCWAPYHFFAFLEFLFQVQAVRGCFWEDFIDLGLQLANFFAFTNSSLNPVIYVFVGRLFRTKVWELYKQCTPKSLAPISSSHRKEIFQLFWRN
The experiment can be described thus: Calcium flux assay (FLIPR) with recombinant CHO-K1 cells expressing human B1 receptor. Type of experiment: cell-based. As to conditions: absence of 0.1% BSA in assay buffer, agonist Lys-(Des-Arg)-Bradykinin, read-out: hB1 free IC50. As for the experimental part:
The potency to inhibit the Bradykinin B1 receptors was determined for the example compounds of this invention in a cell-based fluorescent calcium-mobilisation assay. The assay measures the ability of example compounds to inhibit Bradykinin B1 receptor agonist-induced increase of intracellular free Ca^2+ in the cell line expressing B1 receptor. Specifically, calcium indicator—loaded cells are pre-incubated in the absence or presence of different concentrations of example compounds followed by the stimulation with a selective B1 receptor agonist peptide. The change of the intracellular Ca^2+ concentration is monitored with a fluorescent plate reader FLIPR (Molecular Devices).
Calcium flux Assay (FLIPR) with recombinant cells for Bradykinin B1 receptor antagonist, either in the presence (hB1 IC50) or absence (hB1 free IC50) of 0.1% BSA in assay buffer
CHO-K1 cell line expressing human B1 receptor was purchased from Euroscreen (Gosselies, Belgium, with reference name hB1-D1). The cells were grown in Nutrient Mixture Ham's F12 (Sigma) containing 10% Foetal bovine serum (Sigma) and 400 μg/mL G418 (Sigma), 5 μg/mL puromycin (Sigma).
For the calcium flux assay, 80% confluent cells were detached from the culture vessels with Versene (Gibco), and seeded into 384-well plates (Cell binding Surface; Corning, N.Y.; #3683) at a density of 15,000 cells per well. Cells were seeded in a volume of 50 μL in medium without antibiotics and incubated overnight in a humidified atmosphere with 5% CO2 at 37° C. […] The calcium indicator loaded cells were incubated at 37° C. for 2 hrs. Extracellular dye was then removed and each well was filled with 45 μL of assay buffer. Cell plates were kept in dark until used. Example compounds were assayed at 8 concentrations in triplicate. Serial 10-fold dilutions in 100% DMSO were made at a 100-times higher concentration than the final concentration, and then diluted 1:10 in assay buffer. 5 μL of each diluted compound was added to the well of cell plates (yielding final concentration with 1% DMSO), and incubated for 30 min at 28° C. before the addition of B1 receptor agonist on the FLIPR instrument.
Agonist plates contained the agonist Lys-(Des-Arg)-Bradykinin (Bachem, Brackley) at 3.5×EC90 in assay buffer with 1% DMSO. The addition of agonist 20 μl per well to the assay plate was carried out on the FLIPR instrument while continuously monitoring Ca^2+-dependent fluorescence at 538 nm. A peptide antagonist Lys-(Des-Arg-Leu)-Bradykinin (Bachem, Brackley) at 20 µM was used to determine the full inhibition as control.
Peak fluorescence was used to determine the response to agonist obtained at each concentration of example compound by the following equation:
% Response=100*(RFU(example compound)−RFU(control)/(RFU(DMSO)−RFU(control)) • Control=full inhibition by the peptide antagonist Lys-(Des-Arg-Leu)-Bradykinin at 20 μM
The response values were plotted against the logarithm of the compound concentrations. The compounds were tested in triplicates per plate and mean values were plotted in Excel XLfit to determine IC50 values, percentage of maximal inhibition and the Hill slopes.
A general note: Calcium assays in cells follow changes in intracellular calcium, usually with a dye or a luminescent sensor.
“(+)-5-({[trans-2-(4-chlorophenyl)cyclopropyl]carbonyl}amino)-2-(1-cyclobutyl-1H-pyrazol-4-yl)-3-fluorobenzoic acid [Example 3]”: the IC50 was found to be 10 nM. For the compound `O=C(O)c1cc(NC(=O)C2CC2c2cccc(Cl)c2)cc(F)c1-c1cnn(C2CCC2)c1` (single isomer, unassigned; (+)) [Example 8, (+)-5-({[2-(3-chlorophenyl)cyclopropyl]carbonyl}amino)-2-(1-cyclobutyl-1H-pyrazol-4-yl)-3-fluorobenzoic acid], the half-inhibitory concentration (IC50) came out at 1130 nM.

For `O=C(O)c1cc(NC(=O)C2CC2c2ccc(Cl)cc2)ccc1-c1cnn(C2CCC2)c1` (racemic) [Example 6, 5-({[2-(4-chlorophenyl)cyclopropyl]carbonyl}amino)-2-(1-cyclobutyl-1H-pyrazol-4-yl)benzoic acid], the IC50 came out at 272 nM. For `CC(C)(C)c1ccn(-c2ccc(NC(=O)C3CC3c3ccc(Cl)cc3)cc2C(=O)O)n1` (racemic) [Example 14, 2-(3-tert-Butyl-1H-pyrazol-1-yl)-5-({[2-(4-chlorophenyl)cyclopropyl]carbonyl}amino)benzoic acid], the IC50 stood at 2220 nM. As to `O=C(O)c1cc(NC(=O)C2CC2c2ccc(Cl)cc2)ccc1-c1cnn(C2CCC2)c1` (single isomer, unassigned) [Example 7, 5-({[2-(4-chlorophenyl)cyclopropyl]carbonyl}amino)-2-(1-cyclobutyl-1H-pyrazol-4-yl)benzoic acid], the IC50 came to 117 nM. Regarding `CCC(F)(F)c1ccc(-c2ccc(NC(=O)C3CC3c3cccc(C(F)(F)F)c3)cc2C(=O)O)cn1` (racemic) [Example 21, 2-[6-(1,1-difluoropropyl)pyridin-3-yl]-5-[({2-[3-(trifluoromethyl)phenyl]cyclopropyl}carbonyl)amino]benzoic acid], the IC50 is 403 nM. For the compound `O=C(O)c1cc(NC(=O)C2CC2c2ccccc2OC(F)(F)F)ccc1-c1cnn(C2CCC2)c1` (racemic) [Example 10, 2-(1-cyclobutyl-1H-pyrazol-4-yl)-5-[({2-[2-(trifluoromethoxy)phenyl]cyclopropyl}carbonyl)amino]benzoic acid], the IC50 is 353 nM. The same measure, in the same setting: then “(−)-5-({[trans-2-(4-chlorophenyl)cyclopropyl]carbonyl}amino)-2-(1-cyclobutyl-1H-pyrazol-4-yl)-3-fluorobenzoic acid [Example 4]”, with 1180 nM. Regarding `CCC(F)(F)c1ccc(-c2ccc(NC(=O)C3CC3c3cccc(Cl)c3)cc2C(=O)O)cn1` (racemic) [Example 22, 5-({[2-(3-chlorophenyl)cyclopropyl]carbonyl}amino)-2-[6-(1,1-difluoropropyl)pyridin-3-yl]benzoic acid], the IC50 turned out to be 1190 nM.

For `CCC(F)(F)c1ccc(-c2ccc(NC(=O)C3CC3c3ccc(Cl)cc3)cc2C(=O)O)cn1` (racemic) [Example 23, 5-({[2-(4-Chlorophenyl)cyclopropyl]carbonyl}amino)-2-[6-(1,1-difluoropropyl)pyridin-3-yl]benzoic acid], the IC50 was 309 nM.

On to `O=C(O)c1cc(NC(=O)C2CC2c2cccc(C(F)(F)F)c2)ccc1-c1cnn(C2CCC2)c1` (racemic) [Example 12, 2-(1-cyclobutyl-1H-pyrazol-4-yl)-5-[({2-[3-(trifluoromethyl)phenyl]cyclopropyl}carbonyl)amino]benzoic acid], for which the IC50 was 126 nM.

For the compound `CCC(F)(F)c1ccc(-c2ccc(NC(=O)C3CC3c3ccccc3OC(F)(F)F)cc2C(=O)O)cn1` (racemic) [Example 20, 2-[6-(1,1-difluoropropyl)pyridin-3-yl]-5-[({2-[2-(trifluoromethoxy)phenyl]cyclopropyl}carbonyl)amino]benzoic acid], the 50% inhibitory concentration (IC50) was found to be 1520 nM. Take `CC(F)(F)c1ccc(-c2ccc(NC(=O)C3CC3c3cccc(Cl)c3)cc2C(=O)O)cn1` (racemic) [Example 17]: the IC50 is 2470 nM. As for `CC(F)(F)c1ccc(-c2ccc(NC(=O)C3CC3c3ccccc3OC(F)(F)F)cc2C(=O)O)cn1` (racemic) [Example 16, 2-[6-(1,1-difluoroethyl)pyridin-3-yl]-5-[({2-[2-(trifluoromethoxy)phenyl]cyclopropyl}carbonyl)amino]benzoic acid], the IC50 came out at 2570 nM. For `O=C(O)c1cc(NC(=O)C2CC2c2cccc(Cl)c2)ccc1-c1cnn(C2CCC2)c1` (single isomer, unassigned) [Example 11, 5-({[2-(3-chlorophenyl)cyclopropyl]carbonyl}amino)-2-(1-cyclobutyl-1H-pyrazol-4-yl)benzoic acid], the IC50 was determined as 32 nM. Same read-out and setting: then `CC(F)(F)c1ccc(-c2ccc(NC(=O)C3CC3c3ccc(Cl)cc3)cc2C(=O)O)cn1` (racemic) [Example 19, 5-({[2-(4-chlorophenyl)cyclopropyl]carbonyl}amino)-2-[6-(1,1-difluoroethyl)pyridin-3-yl]benzoic acid], with 2490 nM; and `Cc1cccc(C2CC2C(=O)Nc2ccc(-c3cnn(C4CCC4)c3)c(C(=O)O)c2)c1` (racemic) [Example 5, 2-(1-cyclobutyl-1H-pyrazol-4-yl)-5-({[2-(3-methylphenyl)cyclopropyl]carbonyl}amino) benzoic acid], with 110 nM. Consider `CC(F)(F)c1ccc(-c2ccc(NC(=O)C3CC3c3cccc(C(F)(F)F)c3)cc2C(=O)O)cn1` (racemic) [Example 18, 2-[6-(1,1-difluoroethyl)pyridin-3-yl]-5-[({2-[3-(trifluoromethyl)phenyl]cyclopropyl}carbonyl)amino]bentoic acid], for which the 50% inhibitory concentration (IC50) is 2510 nM. The same measure, in the same setting: for `O=C(O)c1cc(NC(=O)C2CC2c2cccc(Cl)c2)cc(F)c1-c1cnn(C2CCC2)c1` (single isomer, unassigned; (-)) [Example 9, (−)-5-({[2-(3-chlorophenyl)cyclopropyl]carbonyl}amino)-2-(1-cyclobutyl-1H-pyrazol-4-yl)-3-fluorobenzoic acid] the value was 17 nM.

The target in another experiment is T2, native human B1 receptors (Homo sapiens, UniProt P46663).
T2 construct: which express native human B1 receptors after induction with human IL-1; Coriell Institute; host or cells: IMR-90 human foetal lung fibroblasts, induced with human IL-1
T2 sequence (P46663 1-353): T1 sequence (P46663 1-353)
Briefly: Calcium flux assay (FLIPR) with IMR-90 human foetal lung fibroblasts after IL-1 induction. In kind it is cell-based. To be noted: IMR-90 fibroblasts induced with human IL-1; 0.1% BSA in assay buffer; agonist Lys-(Des-Arg)-Bradykinin at EC90; read-out: hB1 IC50 IMR90. As for the experimental part: Calcium Flux Assay (FLIPR) with Human Fibroblasts for Bradykinin B1 Receptor Antagonist (hB1 IMR-90 IC50)
The Calcium flux Assay was carried out utilising IMR-90 human foetal lung fibroblasts (American Type Culture Collection, Rockville, Md.; and Coriell Institute, Camden, N.J.), which express native human B1 receptors after induction with human IL-1[…].
The fibroblasts were cultured in complete growth media comprised of Dulbecco's modified Eagle's medium (DMEM; Sigma) containing 10% foetal bovine serum, 4 mM L-glutamine, and 1% nonessential amino acids. The cells were maintained in a humidified atmosphere with 5% CO2 at 37° C. and were sub-cultured at a ratio of 1:3, every other day.
For the assay, IMR-90 fibroblasts were harvested using TrypLE Express (GIBCO/Invitrogen) and seeded into 384-well plates (Corning Cellbinding Surface, Cat. 3683) at a density of 15000 cells/well. The following day, cells were treated with 0.35 ng/mL human IL-1[…] in 10% FBS/MEM for 3 h to up-regulate B1 receptors. Induced cells were loaded with fluorescent calcium indicator by incubation with 2.5 μM Fluo-4/AM (Invitrogen) at 37° C., 5% CO2 for 2 h in the presence of 2.5 mM probenecid in 1% FBS/MEM. Extracellular dye was removed by washing with assay buffer (2.5 mM probenecid and 0.1% BSA in 20 mM HEPES/HBSS without bicarbonate or phenol red, pH 7.5). Example compounds were assayed at 8 concentrations in triplicate. After addition of example compounds to the cell plate and incubation for 30 min at 28° C., the addition of B1 agonist Lys-(Des-Arg)-Bradykinin (Bachem, Brackley) at a final concentration of EC90 was carried out on the FLIPR instrument while continuously monitoring Ca^2+-dependent fluorescence at 538 nm. A peptide antagonist Lys-(Des-Arg-Leu)-Bradykinin (Bachem, Brackley) at 20 μM was used to determine the full inhibition as control. IC50 values were determined by the same way described for the FLIPR assay with recombinant cells.
“(+)-5-({[trans-2-(4-chlorophenyl)cyclopropyl]carbonyl}amino)-2-(1-cyclobutyl-1H-pyrazol-4-yl)-3-fluorobenzoic acid [Example 3]”: the IC50 turned out to be 51 nM. For the compound `CCC(F)(F)c1ccc(-c2ccc(NC(=O)C3CC3c3ccc(Cl)cc3)cc2C(=O)O)cn1` (racemic) [Example 23, 5-({[2-(4-Chlorophenyl)cyclopropyl]carbonyl}amino)-2-[6-(1,1-difluoropropyl)pyridin-3-yl]benzoic acid], the IC50 was 529 nM.
